Data: a melting point compilation (Tetko et al.; mined from patent text by program, amines drawn as free bases though some values may be those of a salt)
Residues, ends and D or L forms follow the SMILES beside them. *: point of attachment. NHPhenethyl = c1ccc(CCN*)cc1; Cbz = O=C(OCc1ccccc1)*

melting point [°C]	Compound
210	COc1cc(C=CC(=O)c2ccc(O)c(CC(=O)O)c2)cc(OC)c1OC
142 to 144	CCOC(=O)C(C)(C)c1ccc(C(O)CCCN2CCC(=C3c4ccccc4CCc4ccccc43)CC2)cc1 (stereo unspecified)
132 to 133	COc1cccc(-c2nc3n(n2)CCc2cc(OC)c(OC)cc2-3)c1
95 to 97	Oc1ccc(C2=CCCCCCC2)cc1
133 to 135	CC(C(=O)N(C)C)n1nc(-c2ccccc2)cc1-c1ccccc1 (stereo unspecified)
220 to 222	Fc1ccc(-c2c[nH]c(C3CCN(CC4CCCCC4)CC3)n2)cc1
132 to 134	CCOC(=O)c1cn(C2CC2)c2c(F)c(N3CCNC(C)C3)c(F)c(N)c2c1=O (stereo unspecified)
51.5 to 52	S=C(Cc1cccs1)N1CCCCC1
43 to 45	CCOC(=O)c1cccc(CSCCNC(=O)c2c(Cl)cccc2Cl)c1
144 to 148	CNC1=NS(=O)(=O)N=C1NCCSCc1csc(CN(C)C)n1
202 to 204	O=C(Nc1ccc(F)c([N+](=O)[O-])c1)c1ccc(Cl)c(Cl)c1
65 to 66	CCCCOc1c(NC(CC)CC)c(=O)c1=O
112 to 121	CCCCc1c(OS(=O)(=O)c2ccc(C)cc2)n(-c2ccccc2)n(-c2ccccc2)c1=O
229	CS(=O)(=O)c1ccc(C(=O)N[C@H]2CC[C@H](CCN3CCN(c4nccc5c4CCO5)CC3)CC2)s1
226 to 228	CCOC(=O)c1cnc(Nc2cccc([N+](=O)[O-])c2)[nH]c1=O
171	CN(Cc1ccccn1)C(=S)Nc1ccc(C#N)cc1
158 to 159	Cc1ccccc1COc1cccnc1NC(=N)Nc1ccc(Cl)cc1
96 to 98	COc1ccc(Cc2cnc(N)nc2N)cc1OCCCNS(=O)(=O)c1ccc(NC(C)=O)cc1
231 to 233	Cc1c(N2CCN(C(=O)OC(C)(C)C)CC2)nn2c(-c3ccncc3)c(-c3ccc(F)cc3)nc2c1C
176 to 178	Cc1cc(O)c(N)c([N+](=O)[O-])c1C
61 to 63	CCCCCCCCCCCCCCCCCNC(=O)O[C@@H]1CCCO[C@H]1COCc1ccccc1 (relative stereo)
245 to 246	Cc1nc2cccnc2n(-c2ccc(Cl)cc2)c1=O
255 to 260	O=c1[nH]c2cc([N+](=O)[O-])c(Sc3cccc4cnccc34)cc2o1

melting point [°C]	Compound
89	CC(=O)C=CSc1ncc(Cl)cn1
140	O=S(=O)(Cl)c1ccc2cc(Oc3c(Cl)cc(C(F)(F)F)cc3Cl)ccc2c1
203 to 204	CCOC(=O)c1oc2c(-c3ccc(F)cc3)c(-c3ccc(S(C)(=O)=O)cc3)nn2c1C
169 to 171	NC1=NS(=O)N=C1NCCCN(Cc1cccs1)c1ccccn1 (stereo unspecified)
127 to 129	COC(=O)C(=O)c1ccc(OCCOc2ccc3ccccc3c2)c([N+](=O)[O-])c1
87	Cc1ccc2cc(-c3cccs3)ccc2n1
120 to 122	COc1ccc(NC(=O)c2ccc(C3=NC(C)(C)Cc4cc(OC)c5c(c43)CC(C)(C)O5)cc2)cc1
107	NC(=O)N(O)Cc1ccc2c(c1)CCN2Cc1ccccc1
206 to 208	Cc1cc2nc(NC(=O)CO)sc2cc1C
45 to 48	CCSc1nccnc1C(=O)CC
154 to 156	CCc1nn(-c2cc(NC(=O)c3ccccc3)ccc2Br)c(=O)n1Cc1ccc(-c2ccccc2S(=O)(=O)NC(=O)OC(C)(C)C)cc1F
146 to 147	COc1c(N2CCO[C@@H](CN(C)C)C2)c(F)cc2c(=O)c(C(=O)O)cn(C3CC3)c12
42	CCS(=O)(=O)C1=NCN(S(=O)(=O)CC)S1
170 to 178	NCc1ccc2c(c1)C(=O)c1ccccc1C2=O
101 to 103	Nc1cccc(Oc2ncccc2C(=O)NCc2ccccc2Cl)c1
184 to 186	CCCCC(CC(=O)Nc1cc(C(N)=O)ccc1C(C)(C)C)c1ccc(OC)cc1OCC (stereo unspecified)
175 to 176	CC(C)(N)C(O)c1cc(C(F)(F)F)nc2c(C(F)(F)F)cccc12 (stereo unspecified)
248 to 250	Cc1nc(-c2nccs2)c2nc(-c3ccccc3)cc-2[nH]1
97 to 99	CON=C(C(=O)O)c1cccc(OCc2ccccc2Cl)c1OCc1ccccc1Cl
147 to 149	CCCCNC(=O)c1ccc(S(=O)(=O)CCCn2c(CCC)nc3c(N)nc(C)c(C)c32)cc1
224 to 226	Cc1nc2c(C(=O)O)c(C(=O)O)ccc2n1Cc1ccccc1
126 to 127	CC(C)(c1ccncn1)C(O)(Cn1cncn1)c1ccc(F)cc1F (stereo unspecified)
184 to 186	O=C1CS(=O)c2ccccc2N1 (stereo unspecified)

melting point [°C]	Compound
172 to 174	O=C1OC(=O)[C@H](Cc2ccccc2)C[C@H]1Cc1ccccc1
165 to 168	CC(C)Cn1c(CO)nc2cnc3ccccc3c21
228	O=C(O)COc1cc2c(c(Cl)c1Cl)C(=NO)C1(CCCC1)C2
187 to 190	CN1C(=O)C2(COc3cc4c(cc32)CCO4)c2ccccc21 (stereo unspecified)
181 to 182	CC(=O)c1cc(-c2ccccc2)c(=O)n2c1-c1ccsc1CC2
149 to 150	CCCCCCCC(=O)OC(=C1C(=O)N(C(N)=O)c2cc(Cl)c(F)cc21)c1cccs1
222 to 225	COc1cc(Nc2nc3cccc(-c4ccc(NS(C)(=O)=O)cc4)c3o2)cc(OC)c1OC
94 to 96	Clc1ccc(CN2CC=C(/C=C/c3cccc(Cl)c3)CC2)cc1
167 to 171	CCOC(=O)c1ccc2c(c1)S[C@@H](c1ccc(OC)cc1)[C@@H](OC(C)=O)C(=O)N2CCN(C)C (racemic)
101 to 102	CON=C1CSc2ccccc2CN1
150 to 151	CCCC(O)c1c(C)c(NC(=O)CC(C)(C)C)c(C)c2c1OCC2c1ccc(C(C)C)cc1 (stereo unspecified)
141 to 145	Cc1ccc(S(=O)(=O)Oc2c(C(=O)c3ccc(S(C)(=O)=O)cc3Cl)cnn2C)cc1
81 to 82	CC(C)c1nn(-c2ccc(C(F)(F)F)cn2)cc1CCCCOc1cccc(OC(C)(C)C(=O)O)c1
240 to 245	O=C(NC[C@H]1CN(c2ccc3c(c2)CCCc2cnoc2-3)C(=O)O1)c1ccccc1
143 to 145	OC(COc1ccccc1)CN1CCN(c2nc3nccc(-c4ccncc4)n3n2)CC1 (stereo unspecified)
135 to 139	CN(C)Cc1nc2n(n1)-c1cccnc1N(c1ccccc1)C2
244 to 245	O=C1CCCc2c(O)cccc2N1
155 to 156	O=C(O)C=CC(=O)c1ccc(Oc2ccc(Cl)c(Cl)c2)cc1
62 to 63	FC(F)(F)Oc1ccc(-c2ccc3c(ccn3Cc3ccccc3)c2)cc1
64 to 66	Clc1ccccc1Cc1nc2cccc(CCc3nccs3)c2o1
86 to 93	CN(C)CCCCCCNC(=O)c1ccc(-c2nnc(CSCCOc3ccccc3)o2)cc1
141 to 143	FC(F)(F)c1cc(OCc2ccc(-c3ccccc3-c3nnn(C(c4ccccc4)(c4ccccc4)c4ccccc4)n3)cc2)c2c(n1)CCCC2
247	CCc1ccc2sc3cc(-c4nnn[nH]4)ccc3c(=O)c2c1

melting point [°C]	Compound
259 to 261	N#Cc1c2ccccc2cc2c1sc1cccc(-c3cc(Br)c(OCC(=O)O)c(Br)c3)c12
115 to 118	CC(N)=CC(=O)CS(=O)(=O)N(C)Cc1ccccc1
116 to 118	C[C@H](Cc1cc2c(c(C(N)=O)c1)N(CCCCO)CC2)NCCOc1ccccc1OCC(F)(F)F
225 to 229	NC(=O)CC(NC(=O)C(CO)NC(=O)CNC(=O)CNC(=O)OCc1ccccc1)C(=O)NC(Cc1ccccc1)C(=O)NCCc1ccccc1 (stereo unspecified) (Cbz-GGSNF-NHPhenethyl; configuration not given here)
163 to 165	CCOC(=O)NN=Cc1ccc2ccccc2n1
228 to 231	CC1=C(C)C(O)N(c2nc3ccc(OC(F)(F)F)cc3s2)C1=O (stereo unspecified)
144 to 145	Cc1ccc2[nH]c(=O)oc2c1
243	Cc1ccc(-n2ncc(C(=O)Nc3ccc(N4CCC(N5CCOCC5)CC4)c(C#N)c3)c2C)cc1
99.2	CCC(=S)C1Cc2c(OC)ccc(OC)c2CO1 (stereo unspecified)
106 to 107	Cc1oc(-c2ccccc2)nc1COc1cccc([N+](=O)[O-])c1
226 to 228	CN(Cc1cc(C(F)(F)F)cc(C(F)(F)F)c1)C(=O)c1c(-c2ccc(F)cc2)c2c(c(=O)n1C)CCCN2
90 to 91	CCn1c(C(F)(F)F)cc(=O)n(-c2cc(C(=O)OC3CCCC3)c(Cl)cc2F)c1=O
107 to 108	COc1ccc2c(c1)C(O)(CC#N)C(C)(C)CC2 (stereo unspecified)
141 to 143	CC(=O)N[C@@H]1CCCC[C@H]1OCC(=O)O (relative stereo)
144 to 145	COc1ccc(C=Cc2ccc(C)cc2)c(Cl)c1
70 to 77	O=C(O)CCCCc1ccc2ccccc2c1OCc1ccccc1
121 to 122	Cc1ccc2ccccc2c1N(C(=O)CCl)C1COC(=O)C1 (stereo unspecified)
89 to 91	c1ccc(-c2cccc(-n3cnc4cccnc43)c2)cc1
98 to 100	O=C(Nc1ccc(Oc2ccnc(NCCN3CCCCC3)n2)c2ccccc12)c1cc(F)cc(N2CCOCC2)c1
156 to 158	C/C(=N\O)c1cccc(-c2nc3sccn3c2-c2ccnc(N[C@@H]3CCCN(S(=O)(=O)c4ccc(Cl)cc4)C3)n2)c1
226 to 229	O=c1[nH]cnc2c1-c1ccc(Cl)cc1C(c1ccccc1)=NC2
95 to 97	OC1CCCN(CC(O)COc2ccc(-c3ccc(Cl)cc3)cc2)C1 (stereo unspecified)

Compound	melting point [°C]
CCCN(CCC)Cc1cnc(-c2ncn3c2[C@@H]2CCN2C(=O)c2ccccc2-3)o1	132 to 134
CN1C(=O)[C@H](NC(=O)CCc2ccc(C#N)cc2)N=C(c2ccccc2)c2ccccc21	81 to 85
CC(=O)NNC1=Nc2sc(Cl)cc2C(c2ccccc2F)=NC1	207 to 209
CN1C(=O)[C@H](NC(=O)/C=C/c2ccc([N+](=O)[O-])cc2)N=C(c2ccccc2)c2ccccc21	165 to 166
CCn1cc(C(=O)O)c(=O)c2c(C)c(F)c(N3CCNCC3)c(F)c21	223 to 225
